According to patent US20100249243A1, “NOVEL BETA-HYDROXYKETONES AND BETA-ALKOXYKETONES WITH ESTROGENIC ACTIVITY” (priority 2007, published 2010):
Where two headings read alike, the source gives them in different places.

What was measured:
[1] = biological target: T1, ERα (Homo sapiens, UniProt P03372); experiment: ERα luciferase reporter (pERE2TATA-LUC) transactivation assay in transfected HEK293 cells; type: cell-based; design: expressed in transfected cells; host or cells: HEK293; settings: 24 hours; for ERα receptor activation relative to 10 nM E2 corresponding 100: Table 1, sample concentration 10 μM, mean of at least three independent transfections, SEM typically <15%; for ERα in vitro activity (receptor activation relative to 10 nM E2): Table 2, previously published compounds, test compound 10 μM
T1 sequence (P03372 1-595): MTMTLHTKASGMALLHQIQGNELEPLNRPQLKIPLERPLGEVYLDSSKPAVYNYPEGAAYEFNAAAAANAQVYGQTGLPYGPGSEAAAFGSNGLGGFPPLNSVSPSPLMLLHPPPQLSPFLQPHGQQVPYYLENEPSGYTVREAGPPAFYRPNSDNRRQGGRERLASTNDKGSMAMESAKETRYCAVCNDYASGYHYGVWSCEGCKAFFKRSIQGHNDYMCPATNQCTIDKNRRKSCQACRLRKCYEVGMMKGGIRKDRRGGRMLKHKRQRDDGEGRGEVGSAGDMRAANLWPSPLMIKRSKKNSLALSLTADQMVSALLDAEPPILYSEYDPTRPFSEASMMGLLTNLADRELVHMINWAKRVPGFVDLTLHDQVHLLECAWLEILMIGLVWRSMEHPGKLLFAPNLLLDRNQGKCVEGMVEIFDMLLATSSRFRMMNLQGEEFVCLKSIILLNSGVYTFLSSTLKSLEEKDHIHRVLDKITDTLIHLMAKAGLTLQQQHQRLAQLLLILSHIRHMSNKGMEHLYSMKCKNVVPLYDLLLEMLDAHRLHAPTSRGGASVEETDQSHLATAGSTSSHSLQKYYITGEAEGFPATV
Description: (§1) All other reagents were of reagent grade from Sigma or Fluka. One day before transfection, HEK293 cells were seeded in 48-well plates (70×10^3 cells per well) in phenol-free Dulbecco's modified Eagle medium supplemented with 5% delipidated fetal bovine serum (Sigma) and antibiotics. After a medium change, the cells were transfected for 4 hours with 5 ng ERα or ERβ expression vector, 75 ng reporter plasmid pERE2TATA-LUC and 20 ng control plasmid pCMVβ by the calcium phosphate method. After transfection, the cells received fresh medium containing either vehicle (0.1% v/v) or test compound (10 μM). After 24 hours, the cells were washed, lysed and luciferase and β-galactosidase activities were determined from 20 μl of lysates with the Victor^2TM reader (PerkinElmer Wallac, Turku, Finland). […] The data are means±SEM of at least three independent transfections.

[2] = biological target: T2, ERβ (Homo sapiens, UniProt Q92731); experiment: ERβ luciferase reporter (pERE2TATA-LUC) transactivation assay in transfected HEK293 cells; type: cell-based; design: expressed in transfected cells; host or cells: HEK293; settings: for Emax at 10 µM: HEK293, 24 h; for ERβ in vitro activity (receptor activation relative to 10 nM E2): Table 2, previously published compounds, test compound 10 μM
Description: as §1

[3] = biological target: T1, ERα; experiment: Competitive binding assay against [6,7-3H(N)]estradiol in transiently transfected COS-1 cells, ERα; settings: for IC50: ERα IC50 (median inhibition concentration), competition against labeled E2, COS-1 cells with pSG5-hERα, 2 hours at 37° C.; for ERα RBA (relative binding affinity): in comparison to E2 = 100
Description: (§2) Relative binding affinities (RBA) were measured by a competitive assay against [6, 7-^3H(N)]estradiol (PerkinElmer) in transsiently transfected COS-1 cells. […] After 2 hours of incubation at 37° C. the medium was removed. The cells were removed from the wells to 150 μl of 1× phosphate buffered saline (PBS), transferred to Eppendorf tubes and centrifuged at 4° C. using 4000 g for 5 min, and then washed twice with 150 μl of PBS. The cell pellets were dissolved to 50 μl of 0.5M NaOH and incubated for 15 min at 56° C., after which the samples were transferred to liquid twinkle tubes and treated with 3 ml of OptiPhase HiSafe 3 twinkle solution (PerkinElmer).

[4] = biological target: T2, ERβ; experiment: Competitive binding assay against [6,7-3H(N)]estradiol in transiently transfected COS-1 cells, ERβ; settings: for IC50: ERβ IC50 (median inhibition concentration), competition against labeled E2, COS-1 cells with pSG5-hERβ, 2 hours at 37° C.; for ERβ RBA (relative binding affinity): in comparison to E2 = 100
Description: as §2

[5] = read-out: ERβ receptor activation relative to 10 nM E2 corresponding 100, Table 1, sample concentration 10 μM, mean of at least three independent transfections, SEM typically <15%
[6] = read-out: ERβ in vitro activity (receptor activation relative to 10 nM E2), Table 2, previously published compounds, test compound 10 μM

T2 sequence (Q92731 whole entry): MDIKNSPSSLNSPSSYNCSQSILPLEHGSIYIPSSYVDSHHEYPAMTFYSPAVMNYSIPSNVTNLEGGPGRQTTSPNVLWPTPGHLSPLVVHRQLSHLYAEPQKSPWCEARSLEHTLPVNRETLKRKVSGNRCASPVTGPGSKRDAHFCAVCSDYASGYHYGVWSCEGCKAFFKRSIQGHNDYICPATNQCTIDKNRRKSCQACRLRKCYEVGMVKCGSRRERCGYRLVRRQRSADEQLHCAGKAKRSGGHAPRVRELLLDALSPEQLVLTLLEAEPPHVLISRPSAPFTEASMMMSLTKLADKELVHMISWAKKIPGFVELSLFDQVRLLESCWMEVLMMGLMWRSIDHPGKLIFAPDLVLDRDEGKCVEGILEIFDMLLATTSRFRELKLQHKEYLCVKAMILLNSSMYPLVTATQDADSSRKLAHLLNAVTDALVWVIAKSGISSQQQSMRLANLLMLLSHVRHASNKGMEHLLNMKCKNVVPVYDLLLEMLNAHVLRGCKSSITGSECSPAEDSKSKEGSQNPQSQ

ERα receptor activation relative to 10 nM E2 corresponding 100 [1] [%]	Emax at 10 µM [2, 5] [%]	IC50 [3] [nM]	ERα RBA (relative binding affinity) [3] [%]	IC50 [4] [nM]	ERβ RBA (relative binding affinity) [4] [%]	ERα in vitro activity (receptor activation relative to 10 nM E2) [1] [%]	Emax at 10 µM [2, 6] [%]	SMILES	also measured
139.2	170	0.9	217.8	3.4	57.65	–	–	O=C(CCCc1ccc(O)cc1)CC(O)c1ccccc1 (single isomer, unassigned) [Compound 34a, 1-Hydroxy-6-(4-hydroxy-phenyl)-1-phenyl-hexan-3-one]	–
140.0	–	2.13	92.02	10.5	18.67	–	–	O=C(CCCc1ccc(O)cc1)CC(O)c1ccccc1 (single isomer, unassigned) [Compound 34b, 1-Hydroxy-6-(4-hydroxy-phenyl)-1-phenyl-hexan-3-one]	ERβ receptor activation relative to 10 nM E2 corresponding 100 ([2]; Table 1, sample concentration 10 μM, 24 hours, mean of at least three independent transfections, SEM typically <15%): 155.3%
–	–	1700	0.115	1090	0.180	91.4	–	O=C(CCCc1ccccc1)CC(O)c1ccccc1 (single isomer, unassigned) [Compound 59a, 1-Hydroxy-1,6-diphenyl-hexan-3-one]	ERβ in vitro activity (receptor activation relative to 10 nM E2) ([2]; 24 hours): 147.3%
–	–	2170	0.090	11000	0.018	59.3	–	O=C(CCCc1ccccc1)CC(O)c1ccccc1 (single isomer, unassigned) [Compound 59b, 1-Hydroxy-1,6-diphenyl-hexan-3-one]	ERβ in vitro activity (receptor activation relative to 10 nM E2) ([2]; 24 hours): 28.2%
55.0	107	7900	0.025	1250	0.157	–	–	O=C(CCc1ccc(O)cc1)CC(O)Cc1ccccc1 (stereo not shown) [Compound 31ab, 5-Hydroxy-1-(4-hydroxy-phenyl)-6-phenyl-hexan-3-one]	–
83.3	15.1	810	0.242	2050	0.096	–	–	CC(O)(CC(=O)CCCc1ccccc1)c1ccccc1 (stereo not shown) [Compound 36ab, 6-Hydroxy-1,6-diphenyl-heptan-4-one]	–
105.2	82.3	105	1.867	1080	0.181	–	–	O=C(CCCc1ccc(O)cc1)CC(O)Cc1ccccc1 (stereo not shown) [Compound 40ab, 2-Hydroxy-7-(4-hydroxy-phenyl)-1-phenyl-heptan-4-one]	–
9.9	1.3	–	–	–	–	–	–	COC(CC(=O)CCc1ccccc1)Cc1ccccc1 (stereo not shown) [Compound 46ab, 5-Methoxy-1,6-diphenyl-hexan-3-one]	–
28.5	4	–	–	–	–	–	–	COc1ccc(CC(CC(=O)CCc2ccccc2)OC)cc1 (stereo not shown) [Compound 47ab, 5-Methoxy-6-(4-methoxyphenyl)-1-phenyl-hexan-3-one]	–
33.1	11.2	–	–	–	–	–	–	COC(CC(=O)CCc1ccccc1)Cc1ccc(F)cc1 (stereo not shown) [Compound 48ab, 5-Methoxy-6-(4-fluorophenyl)-1-phenyl-hexan-3-one]	–
35.5	2	–	–	–	–	–	–	COC(CC(=O)CCc1ccccc1)Cc1cccc2ccccc12 (stereo not shown) [Compound 49ab, 5-Methoxy-6-naphthalen-1-yl-1-phenyl-hexan-3-one]	–
30.4	12.4	–	–	–	–	–	–	COC(CC(=O)CCc1ccccc1)Cc1ccc2ccccc2c1 (stereo not shown) [Compound 50ab, 5-Methoxy-6-naphthalen-2-yl-1-phenyl-hexan-3-one]	–
24.5	30.4	–	–	–	–	–	–	COC(CC(=O)CCCc1ccccc1)Cc1ccccc1 (stereo not shown) [Compound 51ab, 2-Methoxy-1,7-diphenyl-heptan-4-one]	–
3.1	-14.6	–	–	–	–	–	–	COC(CCc1ccccc1)CC(=O)CCCc1ccccc1 (stereo not shown) [Compound 52ab, 3-Methoxy-1,8-diphenyl-octan-5-one]	–
–	–	–	–	–	–	5.3	16.9	O=C(CC(O)Cc1ccccc1)c1ccccc1 (stereo not shown) [Compound 53ab, 3-Hydroxy-1,4-diphenyl-butan-1-one]	–
–	–	–	–	–	–	0.8	1.6	O=C(Cc1ccccc1)CC(O)c1ccccc1 (stereo not shown) [Compound 55ab, 4-Hydroxy-1,4-diphenyl-butan-2-one]	–
–	–	–	–	–	–	52.1	38.4	CC(O)(CC(=O)CCc1ccccc1)c1ccccc1 (stereo not shown) [Compound 57ab, 5-Hydroxy-1,5-diphenyl-hexan-3-one]	–
–	–	–	–	–	–	12.8	0.4	O=C(CCc1ccccc1)CC(O)Cc1ccccc1 (stereo not shown) [Compound 58ab, 5-Hydroxy-1,6-diphenyl-hexan-3-one]	–
–	–	–	–	–	–	83.3	15.1	CC(O)(CC(=O)CCCc1ccccc1)c1ccccc1 (stereo not shown) [Compound 60ab, 6-Hydroxy-1,6-diphenyl-heptan-4-one]	–
–	–	–	–	–	–	0.3	18.4	COC(CC(=O)c1ccccc1)Cc1ccccc1 (stereo not shown) [Compound 61ab, 3-Methoxy-1,4-diphenyl-butan-1-one]	–
–	–	–	–	–	–	38.1	28.8	COC(CCc1ccccc1)CC(=O)c1ccccc1 (stereo not shown) [Compound 62ab, 3-Methoxy-1,5-diphenyl-pentan-1-one]	–
